Earlier results on 1 compound are cited in patent publication US20050202550A1, “Crystal structure of 3', 5'-cyclic nucleotide phosphodiesterase (PDE10A) and uses thereof” (Pfizer Inc, priority 2004, published 2005).

What is called Km is the substrate concentration at which the rate is half of its maximum.

This data set concerns the target T1, PDE10 (Mus musculus, UniProt Q8CA95).
T1 sequence (Q8CA95 1-779 isoform Q8CA95-2): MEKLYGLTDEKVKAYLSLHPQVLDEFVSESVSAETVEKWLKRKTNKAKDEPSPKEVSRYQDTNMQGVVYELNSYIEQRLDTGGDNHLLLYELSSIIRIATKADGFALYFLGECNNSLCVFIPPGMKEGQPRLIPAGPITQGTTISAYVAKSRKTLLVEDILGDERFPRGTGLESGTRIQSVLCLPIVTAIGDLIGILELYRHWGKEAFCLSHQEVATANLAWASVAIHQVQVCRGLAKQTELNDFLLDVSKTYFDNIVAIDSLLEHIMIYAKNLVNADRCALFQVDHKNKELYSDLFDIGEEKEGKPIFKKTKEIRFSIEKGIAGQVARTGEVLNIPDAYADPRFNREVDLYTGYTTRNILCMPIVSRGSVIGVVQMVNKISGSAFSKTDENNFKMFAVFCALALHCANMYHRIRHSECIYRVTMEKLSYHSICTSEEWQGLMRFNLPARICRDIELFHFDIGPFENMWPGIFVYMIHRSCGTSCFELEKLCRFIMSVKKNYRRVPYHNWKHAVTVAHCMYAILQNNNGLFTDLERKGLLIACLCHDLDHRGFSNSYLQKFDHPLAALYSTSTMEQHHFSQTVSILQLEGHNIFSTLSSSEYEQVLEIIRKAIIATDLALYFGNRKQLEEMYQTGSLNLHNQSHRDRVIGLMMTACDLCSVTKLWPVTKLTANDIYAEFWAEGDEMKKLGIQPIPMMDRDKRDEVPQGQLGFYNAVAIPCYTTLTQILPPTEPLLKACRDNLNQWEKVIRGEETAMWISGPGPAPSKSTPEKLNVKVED
As to conditions: mouse PDE10A1.

Turning to `Nc1nc2c(ncn2[C@@H]2O[C@@H]3COP(=O)(O)O[C@H]3[C@H]2O)c(=O)[nH]1` [cGMP], the “Vmax for cGMP over cAMP” value (ratio of Vmax cGMP to cAMP) is “approximately 5 fold”. The Km (substrate, read-out: Km (affinity of the PDE10 for substrate)) is 3 µM.
